# Results taken from patent US20120252730A1, “PLATELET AGGREGATION INHIBITORS” (UNIVERSITY OF CHICAGO, priority 2009, published 2012).
# Ends that are not written are not given here. maleimide monolayer = not defined here
# B1: QAGDVC (SEQ ID NO: 16), immobilized on a self-assembled monolayer (peptide)
# peptide: QAGDVC-NH2
# modifications: not fully specified (residue 6); also: C-terminal Cys thiol linked to maleimide of monolayer
# notes: also called 0.5% QAGDVC SAM
# B2: KQAGDC (SEQ ID NO: 19), immobilized on a self-assembled monolayer (peptide)
# peptide: KQAGDC-NH2
# modifications: not fully specified (residue 6); also: C-terminal Cys thiol linked to maleimide of monolayer
# notes: also called 0.5% KQAGDC SAM
# B3: KQAGC (SEQ ID NO: 20), immobilized on a self-assembled monolayer (peptide)
# peptide: KQAGC-NH2
# modifications: not fully specified (residue 5); also: C-terminal Cys thiol linked to maleimide of monolayer
# notes: also called 0.5% KQAGC SAM
# B4: GHHLGGADQAGKVC (SEQ ID NO: 71), scrambled peptide immobilized on a self-assembled monolayer (peptide)
# peptide: GHHLGGADQAGKVC-NH2
# modifications: not fully specified (residue 14); also: C-terminal Cys thiol linked to maleimide of monolayer
# notes: Control
# Experiments:
# αIIbβ3 CHO K1 cells [1] = experiment: Cell adhesion inhibition assay with soluble peptides; assay type: cell-based, human
# Procedure: Suspensions of αIIbβ3 CHO K1 cells (100,000/mL) were incubated with cRGDFG (SEQ ID NO: 12) (300 μM) in serum-free F-12K medium with 1 mg/mL BSA (bovine serum albumin) and 1× penicillin/streptomycin for 15 minutes at 37° C. and 5% CO2. These suspensions were then supplemented with soluble peptides at concentrations ranging from 1 pM to 100 μM and further incubated for 15 minutes at 37° C. and 5% CO2. Cells were then added to monolayers and incubated at 37° C. and 5% CO2 for 2 hours, then media was exchanged for F-12K medium supplemented with 10% FBS and 1× penicillin/streptomycin. The substrates were further incubated for 2 hours. The substrates were washed gently with warm PBS, and adherent cells were immediately fixed and permeabilized with 4% formaldehyde and 0.5% Triton-X for 30 minutes. Fixed cells were stained with DAPI, visualized and photographed with a 20× as described previously. The number of adherent cells per field of view was counted using Image J. Cells were counted in at least five fields for each substrate, and each experiment was repeated 3 times. The degree of inhibition is reported as a percentage of cells that adhere relative to control experiments in the absence of soluble peptide.
# To verify that the two peptides interact with the same site on αIIbβ3, it was determined whether the peptides GRGDS (SEQ ID NO: 4), HHLGGAKQAGDV (SEQ ID NO: 1) and AGDV (SEQ ID NO: 22), in soluble form, could block the attachment of cells to the monolayers presenting these ligands. In these experiments identical suspensions of cells (100,000/mL) were first incubated in serum-free F-12K medium supplemented with cRGDFG (SEQ ID NO: 12) (300 μM) and with the soluble peptides in concentrations ranging from 1 pM to 100 μM and then applied the mixtures to monolayers presenting either the GRGDSC (SEQ ID NO: 11), HHLGGAKQAGDVC (SEQ ID NO: 21), or AGDVC (SEQ ID NO: 17) peptide (SEQ ID NO: 17) (FIG. 5). Cells were allowed to attach for 2 hours, after which media was exchanged to 10% FBS F-12K medium (supplemented with cRGDFG (SEQ ID NO: 12)) and cultured for an additional 2 hours. The slides were then rinsed and nuclei were stained with DAPI to facilitate counting of the adherent cells. […] This experiment again verifies that the cell attachment is mediated by the immobilized peptide alone and not non-specific interactions between other cell-surface molecules and the monolayer.
# αIIbβ3 CHO K1 cells [2] = experiment: Ac-GXGDSC peptide array cell adhesion, αIIbβ3 CHO K1 cells; assay type: cell-based, human; conditions: 0.5% peptide spots; 300 μM cRGDFG
# Procedure: Cysteine-terminated peptides were immobilized onto maleimide-presenting SAMs by adding 40 μL of 1 mM peptide solution to the biochip and incubating at 37° C. for 1 hour. Substrates were rinsed with DIUF water and ethanol and dried under a stream of nitrogen. αIIbβ3 CHO K1 cells were detached from culture plates with 1 mM EGTA/2 mM EDTA in PBS (phosphate-buffered saline), rinsed with serum-free F-12K medium, centrifuged and resuspended in serum-free F-12K medium supplemented with cRGDFG (SEQ ID NO: 12) (300 μM) and 1× penicillin/streptomycin. After 15-minute of incubation, cells (200,000/mL) were added to substrates in 24-well culture plates. After 2 hour incubation at 37° C. and 5% CO2, media was exchanged for F-12K medium supplemented with 10% FBS, 1× penicillin/streptomycin and cRGDFG (SEQ ID NO: 12) (300 μM). After 2 hours, the substrates were washed gently with warm PBS, and adherent cells were immediately fixed with 4% formaldehyde for 30 minutes, visualized with a 20× objective of a Zeiss Axiovert 200 inverted microscope, and photographed. For cell adhesion assays mediated by Ac-GXGDSC (SEQ ID NO: 26), αIIbβ3 CHO K1 cells were incubated on a 5×4 circle (1 mm diameter) array for 1 hour with serum-free F-12K medium supplemented with cRGDFG (SEQ ID NO: 12) (300 μM) and 1× penicillin/streptomycin, followed by media exchange to F-12K medium supplemented with 10% FBS, 1× penicillin/streptomycin and cRGDFG (SEQ ID NO: 12) (300 μM. The substrates were washed with warm PBS, and adherent cells were immediately fixed and permeabilized with 4% formaldehyde and 0.5% Triton-X for 30 minutes. Fixed cells were stained with DAPI, visualized and photographed with a 20× objective as described. The number of adherent cells per field of view was counted using Image J software. Cells were counted in at least three fields for each circle, and each experiment was repeated 3 times. The degree of adhesion is reported as a percentage of cells that adhere relative to control experiments with the peptide Ac-GRGDSC (SEQ ID NO: 28).
# To further assay the binding of peptide ligands to the […] integrin for XGD peptide ligands, an array was used to assess the adhesion of cells to peptides having the arginine residue substituted with each amino acid other than cysteine (e.g., A, D, E, F, G, H, I, K, L, M, N, P, Q, R, S, T, V, W, and Y). The library of Ac-GXGDSC (SEQ ID NO: 26) peptides was synthesized and immobilized in an array with each peptide occupying a 1 mm diameter region of the monolayer (FIG. 61). A suspension of αIIbβ3 CHO K1 cells was applied to the entire array and cells were allowed to attach to regions presenting the various peptides. The substrates were then rinsed and stained with DAPI, and the cells were counted to determine the relative efficiency of cell attachment to peptides in the library. […] Substitution with leucine and isoleucine were also active, though at a lower level.
# [3] = molecular target: T1, human αIIbβ3 integrin on transfected CHO K1 cells (human, UniProt P08514 32-1039; P05106 27-788); experiment: adhesion of αIIbβ3 CHO K1 cells to the peptide monolayer, 300 µM cRGDFG present
# T1 construct: whole, on cells; CHO K1 cells transfected with human αIIb and β3 cDNA; about 30% of the cells expressed the receptor; also called platelet receptor; platelet integrin
# Procedure: For cell adhesion assays mediated by Ac-GXGDSC (SEQ ID NO: 26), αIIbβ3 CHO K1 cells were incubated on a 5×4 circle (1 mm diameter) array for 1 hour with serum-free F-12K medium supplemented with cRGDFG (SEQ ID NO: 12) (300 μM) and 1× penicillin/streptomycin, followed by media exchange to F-12K medium supplemented with 10% FBS, 1× penicillin/streptomycin and cRGDFG (SEQ ID NO: 12) (300 μM. The substrates were washed with warm PBS, and adherent cells were immediately fixed and permeabilized with 4% formaldehyde and 0.5% Triton-X for 30 minutes. Fixed cells were stained with DAPI, visualized and photographed with a 20× objective as described. The number of adherent cells per field of view was counted using Image J software. Cells were counted in at least three fields for each circle, and each experiment was repeated 3 times. The degree of adhesion is reported as a percentage of cells that adhere relative to control experiments with the peptide Ac-GRGDSC (SEQ ID NO: 28).
# CHO K1 cells were used that were transfected with the αIIbβ3 receptor, as described previously (Salsmann et al., 2005). Cells were transfected with pcDNA3.1 vectors that coded for αIIb and β3 using FuGENE6 and analyzed by FACS after labeling with the PAC-1 (anti-αIIbβ3) and H-96 (anti-β3) antibodies. Approximately 30% of the cells expressed the receptor (FIG. 2A). Because the CHO K1 cells also express αv and α5 integrins on their surfaces, adhesion experiments were performed in the presence of the cyclic peptide cRGDFG (SEQ ID NO: 12), where F is a D amino acid. […] Treatment of transfected cells with both the cyclic peptide inhibitor and the PAC-1 antibody, however, prevented cell adhesion to the monolayer (FIG. 2F).
# [4] = monolayers presenting GRGDSC, HHLGGAKQAGDVC or AGDVC, soluble peptide 1 pM to 100 μM, 300 μM cRGDFG
molecule,measurement,setting,value
AGDV (completely synthesized peptide),block of cell attachment by soluble peptide,αIIbβ3 CHO K1 cells [1]; monolayer presenting GRGDS,blocked cell attachment
same,block of cell attachment by soluble peptide,αIIbβ3 CHO K1 cells [1]; [4],could block cell attachment to monolayers presenting any of the three peptides
Ac-GAGDSC (Ac-GAGDSC-NH2),cell adhesion on Ac-GXGDSC array relative to Ac-GRGDSC,αIIbβ3 CHO K1 cells [2],mediated αIIbβ3 CHO K1 cell adhesion
Ac-GGGDSC (Ac-GGGDSC-NH2),cell adhesion on Ac-GXGDSC array relative to Ac-GRGDSC,αIIbβ3 CHO K1 cells [2],mediated αIIbβ3 CHO K1 cell adhesion
Ac-GIGDSC (Ac-GIGDSC-NH2),cell adhesion on Ac-GXGDSC array relative to Ac-GRGDSC,αIIbβ3 CHO K1 cells [2],mediated αIIbβ3 CHO K1 cell adhesion
Ac-GKGDSC (Ac-GKGDSC-NH2),cell adhesion on Ac-GXGDSC array relative to Ac-GRGDSC,αIIbβ3 CHO K1 cells [2],mediated αIIbβ3 CHO K1 cell adhesion
Ac-GLGDSC (Ac-GLGDSC-NH2),cell adhesion on Ac-GXGDSC array relative to Ac-GRGDSC,αIIbβ3 CHO K1 cells [2],mediated αIIbβ3 CHO K1 cell adhesion
Ac-GVGDSC (Ac-GVGDSC-NH2),cell adhesion on Ac-GXGDSC array relative to Ac-GRGDSC,αIIbβ3 CHO K1 cells [2],mediated αIIbβ3 CHO K1 cell adhesion
GADGV (scrambled peptide),block of cell attachment by soluble peptide,αIIbβ3 CHO K1 cells [1]; [4],had no effect on cell adhesion
GGRDGS (scrambled peptide),block of cell attachment by soluble peptide,αIIbβ3 CHO K1 cells [1]; [4],had no effect on cell adhesion
GHHLGGADQAGKV (scrambled peptide),block of cell attachment by soluble peptide,αIIbβ3 CHO K1 cells [1]; [4],had no effect on cell adhesion
GRGDS (synthesized peptide inhibitor),block of cell attachment by soluble peptide,αIIbβ3 CHO K1 cells [1]; [4],could block cell attachment to monolayers presenting any of the three peptides
HHLGGAKQAGDV (not fully specified (C-terminus)),block of cell attachment by soluble peptide,αIIbβ3 CHO K1 cells [1]; monolayer presenting GRGDS,blocked cell attachment
same,block of cell attachment by soluble peptide,αIIbβ3 CHO K1 cells [1]; [4],could block cell attachment to monolayers presenting any of the three peptides
"KQAGDVC(maleimide monolayer)-NH2 (reading uncertain, also called 0.5% KQAGDVC SAM) [KQAGDVC (SEQ ID NO: 14), immobilized on a self-assembled monolayer]",binding result,[3],binds
B1,binding result,[3],binds
"AGDVC(maleimide monolayer)-NH2 (not fully specified; reading uncertain, also called 0.5% AGDVC SAM) [AGDVC (SEQ ID NO: 17), immobilized on a self-assembled monolayer]",binding result,[3],binds
B2,binding result,[3],binds
"HHLGGAC(maleimide monolayer)-NH2 (reading uncertain, also called 0.5% HHLGGAC SAM) [HHLGGAC (SEQ ID NO: 13), immobilized on a self-assembled monolayer]",binding result,[3],no binding
"GGAKQAC(maleimide monolayer)-NH2 (reading uncertain, also called 0.5% GGAKQAC SAM) [GGAKQAC (SEQ ID NO: 15), immobilized on a self-assembled monolayer]",binding result,[3],no binding
"GDVC(maleimide monolayer)-NH2 (reading uncertain, also called 0.5% GDVC SAM) [GDVC (SEQ ID NO: 18), immobilized on a self-assembled monolayer]",binding result,[3],no binding
B3,binding result,[3],no binding
"GGRDGSC(maleimide monolayer)-NH2 (reading uncertain, Control; also called 0.5% GGRDGSC) [GGRDGSC (SEQ ID NO: 70), scrambled peptide immobilized on a self-assembled monolayer]",binding result,[3],no binding
B4,binding result,[3],no binding
